Common to all, as to format: biochemical
Test [1] addresses T1, Human Calpain 2/NS1 (Homo sapiens, UniProt P17655).
T1 sequence (P17655 1-700): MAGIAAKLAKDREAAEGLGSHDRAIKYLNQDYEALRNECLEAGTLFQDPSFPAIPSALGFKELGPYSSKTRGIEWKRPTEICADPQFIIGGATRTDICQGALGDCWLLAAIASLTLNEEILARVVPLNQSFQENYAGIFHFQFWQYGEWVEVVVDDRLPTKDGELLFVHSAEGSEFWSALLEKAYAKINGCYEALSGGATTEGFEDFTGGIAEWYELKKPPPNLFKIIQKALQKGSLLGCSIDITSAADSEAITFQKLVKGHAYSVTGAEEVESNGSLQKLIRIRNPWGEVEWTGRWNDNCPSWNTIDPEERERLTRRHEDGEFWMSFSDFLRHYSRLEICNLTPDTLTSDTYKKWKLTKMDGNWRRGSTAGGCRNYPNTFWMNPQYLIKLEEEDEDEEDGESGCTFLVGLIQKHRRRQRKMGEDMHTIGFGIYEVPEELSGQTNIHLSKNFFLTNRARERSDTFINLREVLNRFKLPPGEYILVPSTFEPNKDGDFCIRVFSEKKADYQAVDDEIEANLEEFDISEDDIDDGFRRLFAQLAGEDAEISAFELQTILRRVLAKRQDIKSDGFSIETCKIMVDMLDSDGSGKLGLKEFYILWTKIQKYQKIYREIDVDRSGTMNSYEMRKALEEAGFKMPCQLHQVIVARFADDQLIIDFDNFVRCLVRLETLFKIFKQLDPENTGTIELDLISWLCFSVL
T1 sequence (P04632 1-268 partner): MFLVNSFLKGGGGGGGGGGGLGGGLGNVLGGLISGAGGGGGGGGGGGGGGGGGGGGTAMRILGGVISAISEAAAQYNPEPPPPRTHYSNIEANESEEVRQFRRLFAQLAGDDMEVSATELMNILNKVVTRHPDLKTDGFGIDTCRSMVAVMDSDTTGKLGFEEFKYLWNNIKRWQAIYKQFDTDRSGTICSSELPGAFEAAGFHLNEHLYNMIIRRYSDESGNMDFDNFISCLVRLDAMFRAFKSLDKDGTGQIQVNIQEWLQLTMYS
Kind of test: Calpain inhibition continuous fluorescence (FRET) assay, Human Calpain 2/NS1. The settings on record: Column B; read-out: Human Calpain 2/NS1 IC50. The procedure, abridged:
(§1)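 Continuous FRET read (ex 490/em 520 nm, 10 min) of calpain 1, 2 or 9 cleaving an internally quenched 5-FAM peptide, triggered by substrate with CaCl2 after enzyme–inhibitor incubation at ambient 25 °C, pH 7.5 Tris/NaCl/DTT buffer. IC50 from initial rates (1-5 min) via 4-parameter fit.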

The target in test [2] is T2, Human Calpain 1/NS1 (Homo sapiens, UniProt P07384).
T2 sequence (P07384 1-714): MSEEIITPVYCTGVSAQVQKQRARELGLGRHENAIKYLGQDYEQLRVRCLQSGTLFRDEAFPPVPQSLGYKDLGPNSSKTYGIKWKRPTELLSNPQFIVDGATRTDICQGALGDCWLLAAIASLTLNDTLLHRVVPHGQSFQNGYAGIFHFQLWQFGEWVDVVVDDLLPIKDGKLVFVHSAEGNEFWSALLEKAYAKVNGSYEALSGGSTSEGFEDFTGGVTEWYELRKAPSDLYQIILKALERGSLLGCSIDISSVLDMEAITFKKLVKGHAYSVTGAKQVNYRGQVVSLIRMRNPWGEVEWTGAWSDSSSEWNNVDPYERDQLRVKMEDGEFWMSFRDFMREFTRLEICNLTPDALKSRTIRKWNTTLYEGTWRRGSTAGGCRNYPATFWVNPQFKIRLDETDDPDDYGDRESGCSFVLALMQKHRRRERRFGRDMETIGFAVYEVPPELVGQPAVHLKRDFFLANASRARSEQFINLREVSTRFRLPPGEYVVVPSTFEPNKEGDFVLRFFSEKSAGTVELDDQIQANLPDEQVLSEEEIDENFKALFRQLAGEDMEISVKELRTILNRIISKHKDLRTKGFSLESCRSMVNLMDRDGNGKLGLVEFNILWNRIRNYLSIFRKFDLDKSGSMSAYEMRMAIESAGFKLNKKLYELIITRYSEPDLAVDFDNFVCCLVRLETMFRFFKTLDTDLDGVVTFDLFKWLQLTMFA
T2 sequence (P04632 1-268 partner): T1 sequence (P04632 1-268 partner)
Kind of test: Calpain inhibition continuous fluorescence (FRET) assay, Human Calpain 1/NS1. The settings on record: Column A; read-out: Human Calpain 1/NS1 IC50. In a few lines: as §1

The target in test [3] is T3, Human Calpain 9/NS1 (Homo sapiens, UniProt O14815).
T3 sequence (O14815 1-690): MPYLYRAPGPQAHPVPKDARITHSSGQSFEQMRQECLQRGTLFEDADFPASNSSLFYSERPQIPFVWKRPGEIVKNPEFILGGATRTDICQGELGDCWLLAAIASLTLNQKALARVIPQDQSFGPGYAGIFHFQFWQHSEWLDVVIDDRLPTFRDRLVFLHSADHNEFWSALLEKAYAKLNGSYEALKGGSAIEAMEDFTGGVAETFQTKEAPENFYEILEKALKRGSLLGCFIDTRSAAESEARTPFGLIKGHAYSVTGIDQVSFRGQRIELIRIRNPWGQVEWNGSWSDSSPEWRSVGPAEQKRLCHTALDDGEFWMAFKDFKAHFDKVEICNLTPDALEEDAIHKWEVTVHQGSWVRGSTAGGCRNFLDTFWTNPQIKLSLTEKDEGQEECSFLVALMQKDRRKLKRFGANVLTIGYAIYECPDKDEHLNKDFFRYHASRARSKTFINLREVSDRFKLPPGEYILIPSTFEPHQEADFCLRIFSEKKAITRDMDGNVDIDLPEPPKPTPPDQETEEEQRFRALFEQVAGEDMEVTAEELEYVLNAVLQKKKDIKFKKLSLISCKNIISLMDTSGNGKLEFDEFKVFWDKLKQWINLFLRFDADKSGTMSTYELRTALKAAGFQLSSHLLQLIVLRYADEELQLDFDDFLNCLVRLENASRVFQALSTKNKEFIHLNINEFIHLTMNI
T3 sequence (P04632 1-268 partner): T1 sequence (P04632 1-268 partner)
Briefly: Calpain inhibition continuous fluorescence (FRET) assay, Human Calpain 9/NS1. The settings on record: Column C; read-out: Human Calpain 9/NS1 IC50. In a few lines: as §1

`Cn1ncc(C(=O)N[C@@H](Cc2ccccc2)C(=O)C(N)=O)c1-c1ncccn1` [Compound 191, (S)—N-(4-amino-3,4-dioxo-1-phenylbutan-2-yl)-1-methyl-5-(pyrimidin-2-yl)-1H-pyrazole-4-carboxamide]: the IC50 in test [1], in test [2] and in test [3] was below 3 µM each time.

With `Cn1cc(C(=O)N[C@@H](Cc2ccccc2)C(=O)C(N)=O)c(-c2ccncn2)n1` [Compound 192, (S)—N-(4-amino-3,4-dioxo-1-phenylbutan-2-yl)-1-methyl-3-(pyrimidin-4-yl)-1H-pyrazole-4-carboxamide], the IC50 in test [1], in test [2] and in test [3] was below 3 µM throughout.

Turning to `Cn1ncc(C(=O)N[C@@H](Cc2ccccc2)C(=O)C(N)=O)c1-c1cccc(C(F)(F)F)n1` [Compound 194, (S)—N-(4-amino-3,4-dioxo-1-phenylbutan-2-yl)-1-methyl-5-(6-(trifluoromethyl)pyridin-2-yl)-1H-pyrazole-4-carboxamide], the IC50 in test [1], in test [2] and in test [3] was below 3 µM throughout.

As for `C=CC[C@H](NC(=O)c1cn(C)nc1-c1ccccc1)C(=O)C(N)=O` [Compound 195, N-(1-amino-1,2-dioxohex-5-en-3-yl)-1-methyl-3-phenyl-1H-pyrazole-4-carboxamide], the IC50 is 3 to 10 µM in test [1], below 3 µM in test [2] and below 3 µM in test [3].

Consider `Cn1cc(C(=O)N[C@@H](Cc2ccccc2)C(=O)C(N)=O)c(Br)n1` [Compound 196, (S)—N-(4-amino-3,4-dioxo-1-phenylbutan-2-yl)-3-bromo-1-methyl-1H-pyrazole-4-carboxamide], for which the IC50 in test [1] is below 3 µM; in test [2], below 3 µM; in test [3], 3 to 10 µM.

As to `O=C(NC1CC1)C(=O)[C@H](Cc1ccccc1)NC(=O)c1cncn1-c1ccc(-c2ccccc2)nn1` [Compound 201, (S)—N-(4-(cyclopropylamino)-3,4-dioxo-1-phenylbutan-2-yl)-1-(6-phenylpyridazin-3-yl)-1H-imidazole-5-carboxamide], the IC50 was below 3 µM in test [1], below 3 µM in test [2] and 3 to 10 µM in test [3].

Take `O=C(NC1CC1)C(=O)[C@H](Cc1ccccc1)NC(=O)c1nn[nH]c1-c1ccccc1` [Compound 204, (S)—N-(4-(cyclopropylamino)-3,4-dioxo-1-phenylbutan-2-yl)-5-phenyl-1H-1,2,3-triazole-4-carboxamide]: the IC50 in test [1], in test [2] and in test [3] was above 10 µM in each case.

For the molecule `Cc1noc(-c2ccccc2)c1C(=O)N[C@@H](CCc1ccccc1)C(=O)C(N)=O` [Compound 205, (S)—N-(1-amino-1,2-dioxo-5-phenylpentan-3-yl)-3-methyl-5-phenylisoxazole-4-carboxamide], the IC50 in test [1], in test [2] and in test [3] was below 3 µM throughout.

As to `Cc1cc(C(F)(F)F)cc(-n2nc(C)cc2C(=O)N[C@@H](Cc2ccccc2)C(=O)C(=O)NC2CC2)n1` [Compound 206, (S)—N-(4-(cyclopropylamino)-3,4-dioxo-1-phenylbutan-2-yl)-3-methyl-1-(6-methyl-4-(trifluoromethyl)pyridin-2-yl)-1H-pyrazole-5-carboxamide], the IC50 was above 10 µM in test [1], below 3 µM in test [2] and above 10 µM in test [3].

Consider `Cc1cc(C(=O)N[C@@H](Cc2ccccc2)C(=O)C(N)=O)n(-c2ccncc2)n1` [Compound 209, (S)—N-(4-amino-3,4-dioxo-1-phenylbutan-2-yl)-3-methyl-1-(pyridin-4-yl)-1H-pyrazole-5-carboxamide], for which the IC50 in test [1], in test [2] and in test [3] was below 3 µM each time.

Take `Cc1noc(-n2ccc(-c3ccccc3)n2)c1C(=O)N[C@@H](Cc1ccccc1)C(=O)C(N)=O` [Compound 211, (S)—N-(4-amino-3,4-dioxo-1-phenylbutan-2-yl)-3-methyl-5-(3-phenyl-1H-pyrazol-1-yl)isoxazole-4-carboxamide]: the IC50 in test [1], in test [2] and in test [3] was below 3 µM each time.

With `NC(=O)C(=O)[C@H](Cc1ccccc1)NC(=O)c1c(Cl)nsc1-c1ccccc1` [Compound 213, (S)—N-(4-amino-3,4-dioxo-1-phenylbutan-2-yl)-3-chloro-5-phenylisothiazole-4-carboxamide], the IC50 in test [1], in test [2] and in test [3] was below 3 µM each time.

Regarding `Cc1cc(C(=O)N[C@@H](Cc2ccccc2)C(=O)C(N)=O)n(-c2nccs2)n1` [Compound 215, (S)—N-(4-amino-3,4-dioxo-1-phenylbutan-2-yl)-3-methyl-1-(thiazol-2-yl)-1H-pyrazole-5-carboxamide], the IC50 in test [1], in test [2] and in test [3] was below 3 µM in each case.

Regarding `Cc1cc(C(=O)N[C@@H](Cc2ccccc2)C(=O)C(N)=O)nn1-c1nccs1` [Compound 219, (S)—N-(4-amino-3,4-dioxo-1-phenylbutan-2-yl)-5-methyl-1-(thiazol-2-yl)-1H-pyrazole-3-carboxamide], the IC50 in test [1], in test [2] and in test [3] was 3 to 10 µM each time.

Take `NC(=O)C(=O)[C@H](Cc1ccccc1)NC(=O)[C@@H]1C[C@@H](OCc2ccccc2)CN1c1ccccc1` [Compound 220, (2S,4R)—N—((S)-4-amino-3,4-dioxo-1-phenylbutan-2-yl)-4-(benzyloxy)-1-phenylpyrrolidine-2-carboxamide]: the IC50 in test [1] was below 3 µM; in test [2], below 3 µM; in test [3], 3 to 10 µM.

As to `Cc1noc(-c2ccccc2)c1C(=O)N[C@@H](Cc1ccccc1)C(=O)C(=O)NCc1cccnc1` [Compound 224, (S)—N-(3,4-dioxo-1-phenyl-4-((pyridin-3-ylmethyl)amino)butan-2-yl)-3-methyl-5-phenylisoxazole-4-carboxamide], the IC50 is 3 to 10 µM in test [1], below 3 µM in test [2] and 3 to 10 µM in test [3].

The record behind these values is patent publication US11339130B1 (Blade Therapeutics, Inc., priority 2016, dated 2022).
